Ends that are not written are not given here. Peptide text beside a SMILES is read from it. * marks the point of attachment. Octanoyl = CCCCCCCC(=O)*
Key:
Format in all cases: cell-based
C. albicans = assay: MIC microtiter assay, C. albicans; conditions: Mueller Hinton broth, 16-20 hours at 37° C.
Description: (§1) Table I, which follows, indicates the Minimal Inhibitory Concentration (MIC) in μg/ml of various peptides, against S. aureus strain ATCC 25923(S), P. aeruginosa strain ATCC 27853(P), and E. coli ATCC strain 25922(E), and C. albicans (CA). […] The peptides ere unsubstituted at the N-terminal, substituted with an acetyl group at the N-terminal as indicated by Ac-; substituted with an octanoyl group at the N-terminal as indicated by Oct-, substituted with sphingosine as indicated by Sph-; substituted with a succinyl group, as indicated by Suc-; substituted with a hexanoyl group, as indicated by Hex-; substituted with a heptanoyl group, as indicated by Hep; substituted with a valeryl group, as indicated by Val-; substituted with, a myristryl group, as indicated by Myr-; or substituted with an ibuprofyl group, as indicated by Ibu-.
The procedure for the antibacterial assay is based upon the guidelines of the National Committee for Clinical Laboratory Standards, Document M7-T2, Volume 8, No. 8, 1988.
Stock solutions of peptides with and without the appropriate substitutions,are prepared at a concentration of 512 μg/ml in sterile deionized distilled water and stored at -70° C. Each peptide is a C-terminal amide.
The stock peptide solution is diluted in serial dilutions (1:2) down the wells of a microtiter plate so that the final concentrations of peptides in the wells are 0.25, 0.50, 1, 2, 4, 8, 16, 32, 64, 128, and 256 μg/ml. 1-5×10^5 CFUs/ml of either S. aureus ATCC 25923, E. coli ATCC 25922, P. aeruginosa ATCC 27853, or C. albicans, were added to the wells in full strength Mueller Hinton broth (BBL 11443) from a mid-log culture. The inoculum is standardized spectrophotometrically at 600 nm and is verified by colony counts. The plates are incubated for 16-20 hours at 37° C., and the minimal inhibitory concentration (MIC) for each peptide is determined. Minimal inhibitory concentration is defined as the lowest concentration of peptide which produces a clear well in the microtiter plate. […]

[1] = tested on: P. aeruginosa strain ATCC 27853; assay: Antibacterial MIC microtiter assay (NCCLS M7-T2), P. aeruginosa; conditions: P. aeruginosa ATCC 27853; Mueller Hinton broth, 16-20 hours at 37° C.
Description: as §1
(§2) The procedure for the antibacterial assay is based upon the guidelines of the National Committee for Clinical Laboratory Standards, Document M7-T2, Volume 8, No. 8, 1988. […]
(§3) The stock peptide solution is diluted in serial dilutions (1:2) down the wells of a microtiter plate so that the final concentrations of peptides in the wells are 0.25, 0.50, 1, 2, 4, 8, 16, 32, 64, 128, and 256 μg/ml. […] The plates are incubated for 16-20 hours at 37° C., and the minimal inhibitory concentration (MIC) for each peptide is determined. […]

[2] = tested on: S. aureus strain ATCC 25923; assay: Antibacterial MIC microtiter assay (NCCLS M7-T2), S. aureus; conditions: S. aureus ATCC 25923; Mueller Hinton broth, 16-20 hours at 37° C.
Description: as §1, §2, §3

[3] = tested on: E. coli ATCC strain 25922; assay: Antibacterial MIC microtiter assay (NCCLS M7-T2), E. coli; conditions: E. coli ATCC 25922; Mueller Hinton broth, 16-20 hours at 37° C.
Description: as §1, §2, §3

S. mutans = assay: Anaerobic antimicrobial susceptibility test (NCCLS M11-T2), S. mutans; conditions: BHI broth, 24-48 hours
P. gingivalis = assay: Anaerobic antimicrobial susceptibility test (NCCLS M11-T2), P. gingivalis; conditions: 24-48 hours; for MIC P. gingivalis (strain) 9-14K-1: strain 9-14K-1, BHI broth; for MIC P. gingivalis (strain) 381: strain 381, BHI broth; for MIC P. gingivalis (strain) A7A1-28: strain A7A1-28, BHI broth; for MIC P. gingivalis (strain) FAY-19M-1: strain FAY-19M-1, BHI broth; for MIC P. gingivalis (strain) W50: strain W50, BHI broth
A. viscosus = assay: Anaerobic antimicrobial susceptibility test (NCCLS M11-T2), A. viscosus; conditions: BHI broth, 24-48 hours

Compound	Minimal Inhibitory Concentration CA (C. albicans)	Minimal Inhibitory Concentration P [1]	Minimal Inhibitory Concentration S [2]	Minimal Inhibitory Concentration E [3]	MIC S. mutans (S. mutans)	MIC P. gingivalis (strain) 9-14K-1 (P. gingivalis)	MIC P. gingivalis (strain) 381 (P. gingivalis)	MIC P. gingivalis (strain) A7A1-28 (P. gingivalis)	MIC P. gingivalis (strain) FAY-19M-1 (P. gingivalis)	MIC P. gingivalis (strain) W50 (P. gingivalis)	MIC A. viscos (A. viscosus)
CCCCCCCC(=O)N[C@@H](CCCCN)C(=O)N[C@@H](Cc1c[nH]c2ccccc12)C(=O)N[C@@H](CCCCN)C(=O)N[C@@H](CC(C)C)C(=O)N[C@@H](Cc1ccccc1)C(=O)N[C@@H](CCCCN)C(=O)N[C@@H](CCCCN)C(=O)N[C@H](C(=O)N[C@@H](CCC(=O)O)C(=O)N[C@@H](CCCCN)C(=O)N[C@H](C(N)=O)C(C)C)[C@@H](C)CC [Oct-(SEQ ID NO: 136)-NH2] (Octanoyl-KWKLFKKIEKV-NH2)	128 µg/mL	–	–	–	–	–	–	–	–	–	–
CCCCCCCC(=O)NCC(=O)N[C@H](C(=O)N[C@@H](CCCCN)C(=O)N[C@@H](CCCCN)C(=O)N[C@@H](Cc1ccccc1)C(=O)N[C@@H](CC(C)C)C(=O)N[C@@H](CCCCN)C(=O)N[C@@H](CCCCN)C(=O)N[C@@H](C)C(=O)NCC(=O)N[C@@H](CCCCN)C(=O)N[C@@H](Cc1ccccc1)C(=O)NCC(=O)N[C@@H](CCCCN)C(=O)N[C@@H](C)C(=O)N[C@@H](Cc1ccccc1)C(N)=O)[C@@H](C)CC [Oct-(SEQ ID NO: 149)-NH2] (Octanoyl-GIKKFLKKAGKFGKAF-NH2)	128 µg/mL	–	–	–	–	–	–	–	–	–	–
(SEQ ID NO: 27)-OH: unsubstituted (Lys Ile Ala Gly Lys Ile Ala)3, C-terminal OH (KIAGKIAKIAGKIAKIAGKIA-OH)	–	128 µg/mL	128 µg/mL	8 µg/mL	–	–	–	–	–	–	–
(SEQ ID NO: 86)-OH: unsubstituted (Lys Ile Ala Lys Lys Ile Ala)3, C-terminal OH (KIAKKIAKIAKKIAKIAKKIA-OH)	256 µg/mL	32 µg/mL	128 µg/mL	2 µg/mL	16 μl/ml	16 μl/ml	16 μl/ml	4 μl/ml	8 μl/ml	4 μl/ml	32 μl/ml
KIAKKIAKIAKKIAKIAKKIA-NH2 [(SEQ ID NO: 86)-NH2]	–	–	–	–	4 μl/ml	8 μl/ml	8 μl/ml	2 μl/ml	8,128 μl/ml	4 μl/ml	16 μl/ml

Source: patent publication US5654274A, “Biologically active peptides having N-terminal substitutions” (priority 1995, dated 1997)
